According to patent publication US8871789B2, “Method of preventing or treating viral infection” (The United States of America, as represented by the …, priority 2010, dated 2014):

Legend:
HSV-1 [1] = assay: HSV-1 IE mRNA levels in infected HFF cells; assay type: cell-based; details: increasing concentration of DMOG, HFF, FIG. 7
Protocol: FIG. 13 is a line graph showing viral IE (ICP4, ICP27, and ICP22) and control (S15, Sp1, and TBP) mRNA levels in HFF cells treated with DMSO or the indicated concentrations of ML324 for 3 hours and infected with HSV-1 (0.1 PFU per cell) for 3 hours. *P<0.0001, two-way ANOVA with Tukey's post hoc test. Data are means±SEM.
HSV-1 IE mRNA levels of ICP4 and ICP27 decrease in cells infected in the presence of DMOG. Human foreskin fibroblast (HFF) cells were infected with HSV-1 at 0.1 PFU/cell for 3 hrs in the presence of increasing concentrations of DMOG. Cells were harvested and the levels of viral IE (ICP4, ICP27) and cell control (s15) mRNAs were assessed by qRT-PCR.
All experiments were performed as described in Liang et al., Sci. Transl. Med. 5, 167ra5 (2013). N-(3-(dimethylamino)propyl)-4-(8-hydroxyquinolin-6-yl)benzamide (designated ML324) has the following characteristics: N-(3-(dimethylamino)propyl)-4-(8-hydroxyquinolin-6-yl)benzamide (1). LC-MS: rt (min)=3.033; ^1H NMR (400 MHz, DMSO-d6) δ 1.84-1.98 (m, 2H), 2.79 (s, 3H), 2.80 (s, 3H), 3.12 (ddd, J=10.2 Hz, 5.4 Hz and 5.2 Hz, 2H), 3.37 (q, 2H), 7.50 (s, 1H), 7.66 (dd, J=8.2 Hz and 4.3 Hz, 1H), 7.84 (s, 1H), 7.88-7.94 (m, 2H), 7.96-8.02 (m, 2H), 8.50 (d, J=8.2 Hz, 1H), 8.71 (t, J=5.6 Hz, 1H), 8.90 (d, J=4.1 Hz, 1H), 9.34 (brs, 1H); HRMS (ESI) m/z (M+H)^+ C21H24N3O2, 350.1867. found 350.1863.

HSV-1 [2] = assay: HSV-1 ICP4 protein levels in infected HeLa cells (quantitative western blot); assay type: cell-based; details: increasing concentrations of DMOG, HSV-1 0.1 PFU/cell 3 hrs, FIG. 6
Protocol: HSV-1 IE protein levels of ICP4 decrease in cells infected in the presence of DMOG. HeLa cells were infected with HSV-1 at 0.1 PFU/cell for 3 hrs in the presence of increasing concentrations of DMOG. Cells were harvested and the levels of viral IE proteins (ICP4 shown) were determined by quantitative western blot analyses. As the concentration of DMOG is increased, the levels of ICP4 decrease (FIG. 6).

HSV-1 IE promoters = assay: ChIP of H3K9me3 / histone H3 on HSV-1 IE promoters in HeLa cells; assay type: cell-based; details: 2 mM DMOG 4 hours before infection; FIG. 8
Protocol: Hela cells were pretreated with 2 mM DMOG for 4 hours prior to infection. Cells were infected with 0.1 pfu/cell of HSV-1 for 3 hrs. Standard Chromatin-Immunoprecipitation procedures were preformed (Liang, Vogel, Narayanan, Peng & Kristie, 2009, Nature Med 15:1312-17) to determine the levels of total histone H3 or tri-methylated histone H3 associated with the indicated viral IE promoters.

CMV = CMV IE gene expression in HFF cells; assay type: cell-based; details: increasing concentration of DMOG, FIG. 9
Text: CMV IE gene expression (IE1 and UL37) and control TBP (Tata binding Protein) in the presence of increasing concentrations of DMOG were also studied (FIG. 9). HFF were pretreated with the indicated concentration of DMOG for 3.5 hrs and infected with CMV for 4 hrs. Total RNA was extracted, reverse-transcribed, and cDNAs were quantitated by qPCR using primers to viral IE genes or control genes.

HSV-1 [3] = assay: HSV-1 lytic viral yields from HFF cells; assay type: cell-based; details: HFF pretreated 5 hrs, HSV-1 0.1 pfu/cell 24 hrs; FIG. 10
Protocol: FIG. 14 is a bar graph showing viral yields from HFF cells treated with DMSO or ML324 for 3 hours and infected with HSV-1 (0.1 PFUper cell) for 24 hours in the presence of the drugs. *P<0.004, one-way ANOVA with Dunnett's post hoc test. Data are means±SEM.
HSV-1 lytic viral yields decrease in the presence of DMOG (FIG. 10). HFF cells were pretreated with DMSO control or JMJD2 inhibitor DMOG for 5 hrs and infected with 0.1 pfu/cell of HSV-1 for 24 hrs in the presence of DMSO or DMOG. The yield of infectious virus derived from each treatment were determined by tittering on Vero cells according to standard procedures.

HSV-1 [4] = assay type: cell-based, Balb/c mice; parameters: reduction of viral reactivation (viral yield): unit of the concentration uncertain
Protocol: FIG. 18 is a dot plot showing latently infected ganglia that were explanted in the presence of DMSO, ACV (100 mM), or ML324 (50 mM) for 48 hrs. Viral yields were determined from one half of each ganglia at 48 hrs (DMSO, ACV, ML324) and from the other half of each ganglia after drug reversal for an additional 72 hrs (ACV-R, ML324-R) [Wilcoxon matched pairs signed rank test, ACV vs ACV-R n=8, ML324 vs ML324-R n=10]. Data are means±SEM.
FIG. 19 is a dot plot showing viral yields from HSV-1 latently infected trigeminal ganglia that were explanted in the presence of DMSO, or 2 mM DMOG or 50 mM ML324 for 48 hours (DMSO versus DMOG: P=0.0015, Wilcoxon matched-pairs signed rank test; n=12; DMSO versus ML324: P<0.0001; n=20). Data are means±SEM.
Viral yields decrease from HSV-1 latently infected ganglia explanted in the presence of LSD1 or JMJD2 inhibitors (FIG. 11). Balb/c mice were infected with 5×10^6 PFU HSV-1 (strain F) per eye after corneal scarification. Latently infected mice were sacrificed 45 days post clearance of the primary infection and trigeminal ganglia were rapidly explanted into culture in the presence of 2 mM DMOG, 2 mM TCP, or control (DMSO or ACV, acyclovir) for 48 hours. Post explant incubation, the ganglia were homogenized and briefly sonicated. The reactivated viral yield of each ganglia was determined by titering the clarified supernatant on Vero cells. Statistical comparisons were made using Wilcoxon signed rank test (paired ganglia) with a statistical significance of <0.05. Each data point was the result of a single ganglia divided and treated in the presence and absence of DMSO and DMOG or DMSO and TCP. Therefore, a Wilcoxon signed rank test was used to assess differences between each treated and untreated sample. The significant difference between DMSO control and DMOG was p=0.0018. This test used an exact p-value for small sample sizes with an a level of 0.05. n=20. Analyses were made using Prism (V5.0a) and are expressed as the mean+/−s.e.m.

HSV-1 [5] = assay: IE mRNA levels in explanted latently infected ganglia; assay type: cell-based, mice; details: 7 hours post explant; ICP4 and ICP27 mRNA; FIG. 12
Protocol: Total RNA was isolated and subjected to reverse transcription. The resulting cDNAs were analyzed for viral Immediate Early ICP4 and ICP27 mRNAs relative to an infected cell standard by nested or qPCR. In accordance with an embodiment of the invention, DMOG reduces the levels of viral mRNAs in explanted/reactivated ganglia.
IE gene transcription is repressed in explanted latently infected sensory ganglia in the presence of DMOG (FIG. 12). Total RNA was extracted from ganglia of latently infected mice explanted in the presence of control ACV or DMOG for 7 hours. Random primed cDNA was produced from total RNA using RNAqueous-4PCR and RETROscript (Ambion, Austin, Tex., USA) according to the manufacturer's recommendations. cDNAs were quantitated by nested PCR or qPCR using primers specific for the HSV-1 ICP4 and ICP27 IE mRNAs.

## COC(=O)CNC(=O)C(=O)OC [DMOG, N-methoxyoxoacetyl-glycine methyl ester]
HSV-1 [1]; HSV-1 0.1 PFU/cell 3 hrs
  mRNA levels of ICP4 and ICP27: decrease
HSV-1 [1]
  control mRNA (s15) level decrease: does not
HSV-1 [2]
  levels of ICP4 protein: decrease
HSV-1 IE promoters
  repressive chromatin (H3K9me3, H3) on HSV-1 IE promoters: accumulation of repressive chromatin
CMV
  control mRNA (TBP) level decrease: does not
CMV; HFF pretreated 3.5 hrs, CMV 4 hrs
  CMV IE mRNA levels (IE1/IE7 and UL37): decrease
HSV-1 [3]
  HSV-1 lytic viral yields: decrease
HSV-1 [4]; 2 mM DMOG, 2 mM TCP or ACV, 48 hours, FIG. 11
  viral yield from explanted latently infected ganglia: decreases
HSV-1 [4]; 2 (unit uncertain), 48 hours explant, FIG. 19
  reduction of viral reactivation (viral yield): ~1.5 log
HSV-1 [5]
  IE gene transcription in explanted latently infected sensory ganglia: repressed
